Results: patent publication US20030083366A1, “Combination chemotherapy” (priority 2001, published 2003)
Several values for one entry are separate records, joined by “and”; a condition that tells them apart may be missing. Equal entries are not always repeated. Where two headings read alike, the source gives them in different places.

Legend:
[1] = Route of elimination of radiolabeled drug, monkeys; assay type: in vivo; settings: within 24 hours
Procedure: (§1) Mass balance/route of elimination studies have not been conducted in humans. Animal studies indicate that the principal route of elimination is via renal excretion, with 80% and 62% of radiolabeled drug appearing in the urine of monkeys and rats, respectively, within 24 hours.

[2] = LC-12 squamous cell lung carcinoma implanted subcutaneously in BALB/C mice, chemotherapy study; assay type: in vivo, female BALB/C mice; settings: female, mouse, in vivo, tumor-bearing BALB/C mice
Procedure: (§2) The synergistic combinations provided by this invention have been evaluated in standard chemotherapy studies using female BALB/C mice weighing 18 to 20 g. The test mice were obtained from Charles River Laboratories, Wilmington, Mass. On Day 0 of the test, each mouse was surgically implanted (subcutaneously) with a fragment of LC-12 squamous cell lung carcinoma tumor weighing approximately 30 to 60 mg. The tumor fragments were implanted using a 12 gauge trocar. The mice were weighed weekly, and tumor size (width and length in mm) were measured two times each week with standard calipers. Tumor mass for each animal was calculated according to the formula: [formula]
(§3) where “a” is width of the tumor in mm, and “b” is the length in mm. Evaluation of anticancer activity was established by the formula T-C, where “T” and “C” are the median time (in days) required for the treated and control (respectively) tumors to reach a predetermined size of about 750 mg (the “evaluation size”). Tumors generally reached size of about 150 to about 200 mg before drug dosing was initiated. Antitumor activity was assessed according to four parameters: (1) partial tumor response (PR); (2) complete tumor response (CR); (3) tumor-free survival (TF); and (4) tumor growth delay (TL). Tumor growth delay is expressed as a T-C value, where T is the median days required for the treatment group tumors to reach a predetermined size (e.g., 750 mg), and C is the median days for the control group tumors to reach this size. From the tumor growth delay value, the net log10 tumor cell kill is calculated as follows:
(§4) Net log10 tumor cell kill=[(T−C)−Rx]/3.32×Td
(§5) where Td is the days for the tumor mass to double, and Rx is the total days of treatment. Td is estimated from the best fit straight line from a log-linear plot of the control-group tumors in exponential growth (200 to 800 mg range). The conversion of the T-C values to log10 cell kill is possible because the Td for tumors regrowing after treatment is approximately the same as that for untreated control mice. The net log10 kill value normalizes the efficacy data for tumor growth during treatment regimens of varied duration and provides an estimate of whether an actual regression of the tumor occurred. Positive values indicate that an actual reduction of tumor burden occurred. Negative values indicate the tumor actually grew (although possibly more slowly) during treatment. Tumor-free survivors were excluded from these calculations.
(§6) Acetyldinaline was suspended in 0.5% aqueous methyl cellulose and administered orally at various dosages in 0.5 mL volumes. Docetaxel was dissolved in 5% ethanol, 5% Tween 80, 90% aqueous saline and administered intravenously at various dosage levels in 0.2 mL injections.
(§7) The animals were divided into groups of 10 animals each. One group served as controls and received vehicle alone, with no drug treatments. Two groups received oral doses of acetyldinaline alone at a specified level (as shown in Table 3) of active drug (30 mg/kg and 60 mg/kg). […] Three groups received docetaxel alone at doses of 3.5, 5.6, and 9.0 mg/kg. Two groups received acetyldinaline at the recited doses, in combination with 3.5 mg/kg of docetaxel, and another two groups received acetyldinaline at the recited doses in combination with docetaxel at […], and the final two groups received acetyldinaline at the recited doses, in combination until 9.0 mg/kg of docetaxel.

[3] = system: LC-12 squamous cell lung carcinoma tumor; assay: as above; assay type: in vivo, female BALB/C mice; settings: for antitumor effect of the agents individually: single agent
Procedure: as §2, §3, §4, §5, §6, §7

[4] = Route of elimination of radiolabeled drug, rats; assay type: in vivo; settings: within 24 hours
Procedure: as §1

[5] = Pharmacokinetics and food effect in the solid tumor Phase 1 study; assay type: in vivo, patients; settings: oral, after a fasting period
[6] = Phase 1 study, once daily high-dose 5-day schedule, relapsed acute leukemia or other hematologic malignancy; assay type: in vivo
Procedure: An additional Phase 1 study was conducted in patients with relapsed acute leukemia or other hematologic malignancy using a once daily high-dose 5-day dosing schedule. […] Hematologic toxicities cannot be assessed in this patient population. Two patients with AML developed tumor lysis syndrome, resulting in one death. Transient decreases in peripheral white blood cell counts were noted.

[7] = Phase 1 dose-escalation study of CI-994 in solid tumor patients; assay type: in vivo
Procedure: In one such study, patients were treated using a dose-escalation scheme that increased both the daily dose and the duration of treatment. The majority of patients had received extensive prior chemotherapy. The maximum-tolerated dose (MTD) was 15 mg/m^2/day when the duration of treatment was 14 consecutive days. To allow more prolonged treatment, lower doses were studied. Using a schedule of 8 weeks of continuous daily therapy, followed by a 2-week ‘drug holiday’, the MTD was 8 mg/m^2/day. […] Blood counts tended to stabilize even with continued treatment and to recover quickly when treatment was stopped.

[8] = CI-994 30.0 mg/kg/injection oral, Days 11-13, 15-17, 19-21, alone
[9] = CI-994 60 mg/kg/day (MTD), alone
[10] = CI-994 60.0 mg/kg/injection oral, Days 11-13, 15-17, 19-21, alone
[11] = Docetaxel 3.5 mg/kg/injection iv, Days 11, 15, 19, alone
[12] = Docetaxel 5.6 mg/kg/injection iv, Days 11, 15, 19, alone
[13] = Docetaxel 9.0 mg/kg/injection iv, Days 11, 15, 19, alone

Question: For `CC(=O)Nc1ccc(C(=O)Nc2ccccc2N)cc1` [CI-994, 4-acetylamino-N-(2′-aminophenyl)-benzamide], which “radiolabeled drug appearing in the urine” value [1] is on record?
Answer: 80%

Question: And the MTD ([2]; oral)?
Answer: 60 mg/kg/day

Question: What about the partial tumor response ([3]; CI-994 30 mg/kg/day (50% its MTD), alone) of the same compound?
Answer: 20%

Question: And the “% Weight Change” value [3, 8]?
Answer: −5.5%

Question: And the “Net Log10 Kill” value [3, 8]?
Answer: −0.5 log10

Question: And the “Non-specific Deaths” value [3, 8]?
Answer: 0/10

Question: And the “PR (partial response)” value [3, 8]?
Answer: 2/10

Question: What about the “T − C (tumor growth delay to 750 mg)” value [3, 8] of the same compound?
Answer: 4.6 days

Question: And the “Tumor Free (Day 105)” value [3, 8]?
Answer: 0/10

Question: What about the “CR (complete response)” value ([3]; CI-994 30.0 mg/kg/injection oral, Days 11-13, 15-17, 19-21, alone, 30 mg/kg) of the same compound?
Answer: no complete tumor responses and 0/10

Question: And the “complete tumor response rate” value [3, 9]?
Answer: 40%

Question: And the partial tumor response [3, 9]?
Answer: 10%

Question: What about the “mice tumor free when the study ended” value ([3]; CI-994 60 mg/kg/day (MTD), alone, 105 days after the last CI-994 treatment) of the same compound?
Answer: 30%

Question: What about the “% Weight Change” value [3, 10] of the same compound?
Answer: −10.5%

Question: What about the “CR (complete response)” value [3, 10] of the same compound?
Answer: 4/10

Question: What about the “Net Log10 Kill” value [3, 10] of the same compound?
Answer: −0.3 log10

Question: And the “Non-specific Deaths” value [3, 10]?
Answer: 0/10

Question: And the “PR (partial response)” value [3, 10]?
Answer: 1/10

Question: What about the “T − C (tumor growth delay to 750 mg)” value [3, 10] of the same compound?
Answer: 4.9 days

Question: What about the “Tumor Free (Day 105)” value [3, 10] of the same compound?
Answer: 3/10

Question: And the “antitumor effect of the agents individually” value [3]?
Answer: only modest antitumor efforts

Question: What about the “radiolabeled drug appearing in the urine” value [4] of the same compound?
Answer: 62%

Question: What about the Clinical benefit (8 mg/m^2 given orally daily) of the same compound?
Answer: reported in patients with renal cell cancer

Question: What about the Objective responses (8 mg/m^2 given orally daily) of the same compound?
Answer: seen in patients with nonsmall cell lung cancer

Question: And the dose-limiting toxicity (in vivo, po)?
Answer: Thrombocytopenia

Question: What about the half-life ([5]; human, plasma, preliminary results, read-out: terminal elimination half-life (converted)) of the same compound?
Answer: ~15 h

Question: What about the “maximum plasma CI-994 concentrations with increasing dose levels” value [5] of the same compound?
Answer: less than dose-proportional

Question: And the “terminal elimination half-life and apparent clearance rate versus dose” value [5]?
Answer: independent of the dose administered

Question: And the Other adverse events ([6]; in vivo)?
Answer: nausea, vomiting, hypotension resulting from dehydration, hypocalcemia, headache

Question: And the dose-limiting toxicity ([6]; in vivo)?
Answer: acute CNS toxicity manifested as sedation and somnolence

Question: And the MTD ([6]; once daily high-dose 5-day dosing schedule)?
Answer: 135 mg/m^2/day

Question: What about the MTD ([7]; 8 weeks of continuous daily therapy followed by a 2-week drug holiday) of the same compound?
Answer: 8 mg/m^2/day

Question: And the Responses ([7]; Phase 1 patients)?
Answer: one partial response in a heavily pretreated patient with NSCLC and a minor response in one patient each with renal cell cancer and NSCLC

Question: And the Other toxicities ([7]; human, in vivo)?
Answer: nausea, vomiting, diarrhea, anorexia, fatigue, mucositis, headache, dehydration, and increases in liver and renal function test values

Question: What about the cumulative toxicity ([7]; human, in vivo) of the same compound?
Answer: no evidence of cumulative toxicity

Question: What about the dose-limiting toxicity ([7]; human, in vivo) of the same compound?
Answer: thrombocytopenia or neutropenia

Question: And the “time of occurrence of dose-limiting toxicity after start of therapy” value ([7]; human, in vivo)?
Answer: ≤ 1 month

Question: What about the “maximum-tolerated dose (MTD)” value ([7]; treatment for 14 consecutive days, patients mostly with extensive prior chemotherapy) of the same compound?
Answer: 15 mg/m^2/day

Question: Which MTD ([2]; intravenous, read-out: MTD of docetaxel) does the source give for `CC(=O)O[C@@]12CO[C@@H]1C[C@H](O)[C@@]1(C)C(=O)[C@H](O)C3=C(C)[C@@H](OC(=O)[C@H](O)[C@@H](NC(=O)OC(C)(C)C)c4ccccc4)C[C@@](O)([C@@H](OC(=O)c4ccccc4)[C@H]21)C3(C)C` [Docetaxel] here?
Answer: 9 mg/kg/day

Question: What about the “% Weight Change” value [3, 11] of the same compound?
Answer: −7.3%

Question: What about the “CR (complete response)” value [3, 11] of the same compound?
Answer: 0/10

Question: What about the “Non-specific Deaths” value [3, 11] of the same compound?
Answer: 0/10

Question: And the “PR (partial response)” value [3, 11]?
Answer: 0/10

Question: And the “T − C (tumor growth delay to 750 mg)” value [3, 11]?
Answer: -1.7 days

Question: What about the “Tumor Free (Day 105)” value [3, 11] of the same compound?
Answer: 0/10

Question: And the “% Weight Change” value [3, 12]?
Answer: −11.7%

Question: What about the “CR (complete response)” value [3, 12] of the same compound?
Answer: 0/10

Question: And the “Non-specific Deaths” value [3, 12]?
Answer: 1/10

Question: And the “PR (partial response)” value [3, 12]?
Answer: 1/10

Question: And the “T − C (tumor growth delay to 750 mg)” value [3, 12]?
Answer: -0.5 days

Question: And the “Tumor Free (Day 105)” value [3, 12]?
Answer: 0/10

Question: And the “% Weight Change” value [3, 13]?
Answer: −16.7%

Question: And the “CR (complete response)” value [3, 13]?
Answer: 0/10

Question: And the “Net Log10 Kill” value [3, 13]?
Answer: −0.2 log10

Question: What about the “Non-specific Deaths” value [3, 13] of the same compound?
Answer: 1/10

Question: What about the “PR (partial response)” value [3, 13] of the same compound?
Answer: 3/10

Question: And the “T − C (tumor growth delay to 750 mg)” value [3, 13]?
Answer: 3.3 days

Question: And the “Tumor Free (Day 105)” value [3, 13]?
Answer: 0/10

Question: And the “CR (complete response)” value ([3]; Docetaxel 9.0 mg/kg/injection iv, Days 11, 15, 19, alone, listed as docetaxel)?
Answer: no complete tumor responses

Question: And the partial tumor responses ([3]; docetaxel 9 mg/kg/day (MTD), alone)?
Answer: 30%

Question: What about the “antitumor effect of the agents individually” value [3] of the same compound?
Answer: only modest antitumor efforts
